{
  "source": "patent US8697385B1",
  "about": "“Protein controlling synthesis of collagen and associated methods” (Florida State University Research Foundation, Inc., priority 2009, dated 2014)",
  "key": {"[1]": {"tested_on": "primary scleroderma skin fibroblasts", "test": "Western blot analysis of cellular and medium collagen polypeptides, scleroderma fibroblasts", "type": "cell-based, human", "conditions": "16 h, ML-7 40 μM, blebbistatin 100 μM", "description": "ML-7, blebbistatin, cytochalasin B, puromycin, and cycloheximide were purchased from Sigma. ML-7 was used at 40 μM, blebbistatin was used at 100 μM, and cytochalasin B was used at 20 μM. Cells were incubated with the drugs for 16 h before analysis. Puromycin (200 μg/ml) and cycloheximide (100 μg/ml) were added to the cells for 2 h. Human lung fibroblasts have been described previously.16 Scleroderma fibroblasts were purchased from the European Collection of Cell Cultures (cell line BM0070) and derived from the skin of a scleroderma patient. MEFs were derived from knock-in mice in which the 5′SL of the collagen α1(I) gene has been mutated (Parsons et al., submitted). Several independent cell isolates were used throughout the study. All cells were cultured in Dulbecco's modified Eagle's medium supplemented with 10% fetal bovine serum for up to 10 passages. Plasmid constructs and adenovirus preparation. The HA-tagged LARP6 clone and the deletion mutants have been described previously.^16 Adenoviruses were constructed by recloning of the constructs into the pAdCMVTRACK vector, followed by recombination with the pAdEasy vector and amplification, as described previously.^48 Expression of each construct was verified by Western blot analysis. The viruses made express both the full-size test protein and the green fluorescent protein (GFP), which is encoded by an independent transcription unit.^48 Expression of GFP served as control for viral transduction. RT-PCR analysis Total cellular RNA was isolated using an RNA isolation kit (Sigma). RT-PCRs were performed with 100 ng of total RNA or using rTth reverse transcriptase (Boca Scientific, Boca Raton, Fla.). [^32P]dCTP was included in the PCR step to label the products, which were resolved on sequencing gels, as described previously.^8,31,49,50 When RNA from polysomal fractions was analyzed, an equal aliquot of each fraction was used. The number of cycles was adjusted to within the linear range of the reaction. The primers used for RT-PCR were as follows: h-collagen α1(I), 5′ primer […] (SEQ ID NO:3) and 3′ primer […] (SEQ ID NO:4); h-collagen α2(I), 5′ primer […] (SEQ ID NO:5) and 3′ primer […] (SEQ ID NO:6).\nProtein concentration was estimated by the Bradford assay, with bovine serum albumin as standard.^51 Western blot analyses of cellular proteins were performed using 50 μg of protein. For Western blot analysis of secreted proteins, equal numbers of cells were seeded, serum-free medium was added to the cells, and incubation continued for 3 h. The medium was collected, and an aliquot was analyzed directly by Western blot analysis. Use of serum free medium in collecting secreted proteins is essential because fetal calf serum contains substantial amounts of collagen and fibronectin.^15,31 For immunostaining, cells were seeded onto glass coverslips. After treatment, the cells were fixed with 4% paraformaldehyde for 30 min at room temperature and permeabilized with 0.5% Triton X-100 in phosphatebuffered saline (PBS) for 10 min. After the cells had been blocked with 10% goat serum/5% bovine serum albumin in PBS for 1 h at room temperature, they were incubated with primary antibody overnight at 4° C., washed, and visualized with AlexaFluor594-conjugated or Cy-2-conjugated secondary antibodies. The cells were mounted using VECTASHIELD mounting medium containing […], 6-diamidino-2-phenylindole (Vector Laboratories), and images were taken by a Leica TCS SP2 AOBS laser confocal microscope equipped with a Chameleon Ti: Sapphire multiphoton laser. Optical sections were processed with LCSLite software.\nTo assess the role of nonmuscle myosin in collagen synthesis, we disrupted nonmuscle myosin filaments in two different cell types: primary human lung fibroblasts and primary scleroderma skin fibroblasts. These cells are responsible for lung and skin fibrosis. […]"}, "myosin IIB": {"tested_on": "myosin IIB", "test": "Western blot analysis of total nonmuscle myosin IIB level", "type": "cell-based, human", "conditions": "Western blot; ML-7 40 μM 16 h", "description": "(§1) ML-7, blebbistatin, cytochalasin B, puromycin, and cycloheximide were purchased from Sigma. ML-7 was used at 40 μM, blebbistatin was used at 100 μM, and cytochalasin B was used at 20 μM. Cells were incubated with the drugs for 16 h before analysis. Puromycin (200 μg/ml) and cycloheximide (100 μg/ml) were added to the cells for 2 h. Human lung fibroblasts have been described previously.16 Scleroderma fibroblasts were purchased from the European Collection of Cell Cultures (cell line BM0070) and derived from the skin of a scleroderma patient. MEFs were derived from knock-in mice in which the 5′SL of the collagen α1(I) gene has been mutated (Parsons et al., submitted). Several independent cell isolates were used throughout the study. All cells were cultured in Dulbecco's modified Eagle's medium supplemented with 10% fetal bovine serum for up to 10 passages. […] [^32P]dCTP was included in the PCR step to label the products, which were resolved on sequencing gels, as described previously.^8,31,49,50 When RNA from polysomal fractions was analyzed, an equal aliquot of each fraction was used. […]\n(§2) Protein concentration was estimated by the Bradford assay, with bovine serum albumin as standard.^51 Western blot analyses of cellular proteins were performed using 50 μg of protein. […] The medium was collected, and an aliquot was analyzed directly by Western blot analysis. […]"}, "Δ5′SL MEFs": {"tested_on": "Δ5′SL MEFs", "test": "Western blot analysis of collagen α1(I) polypeptide, Δ5′SL MEFs", "type": "cell-based, mouse", "conditions": "ML-7 treatment", "description": "as §1, §2"}, "[2]": {"tested_on": "nonmuscle myosin filaments", "test": "Immunostaining of nonmuscle myosin IIB filaments in scleroderma fibroblasts", "type": "cell-based, human", "conditions": "ML-7, compared with effect in lung fibroblasts", "description": "as §1, §2"}, "wild-type (WT) MEFs": {"tested_on": "wild-type (WT) MEFs", "test": "Western blot analysis of collagen α1(I) polypeptide, WT MEFs", "type": "cell-based, mouse", "conditions": "ML-7 treatment", "description": "as §1, §2"}, "[3]": {"tested_on": "LARP6 and nonmuscle myosin", "test": "Coimmunoprecipitation of nonmuscle myosin IIB with HA-tagged LARP6", "type": "cell-based, human", "conditions": "lung fibroblasts; ML-7-treated vs control cells", "description": "as §1, with “passages. Plasmid constructs and adenovirus preparation.” for “passages.”\nOne of the roles of nonmuscle myosin filaments may be to present collagen mRNAs to ribosomes. Therefore, we assessed if the association of collagen mRNAs with nonmuscle myosin is dependent on intact polysomes. […]"}},
  "data": [
    {"smiles": "O=S(=O)(c1cccc2c(I)cccc12)N1CCCNCC1", "note": "[ML-7]", "values": [
      {"measurement": "intracellular level of collagen α1(I) polypeptide", "setting": "[1]", "value": "not changed"},
      {"measurement": "intracellular level of collagen α2(I) polypeptide", "setting": "[1]", "value": "reduced"},
      {"measurement": "secretion of collagen α1(I) polypeptide into the medium", "setting": "[1]; cytochalasin B 20 μM", "value": "barely detectable"},
      {"measurement": "secretion of collagen α2(I) polypeptide into the medium", "setting": "[1]; cytochalasin B 20 μM", "value": "absent"},
      {"measurement": "secretion/expression of fibronectin", "setting": "[1]; cytochalasin B 20 μM", "value": "not affected"},
      {"measurement": "total level of myosin IIB", "setting": "myosin IIB", "value": "remained unchanged"},
      {"measurement": "secretion of α1(I) polypeptide into the medium", "setting": "Δ5′SL MEFs", "value": "did not affect"},
      {"measurement": "myosin IIB immunostaining (filaments)", "setting": "[2]", "value": "same effect"},
      {"measurement": "cellular level of α1(I) polypeptide", "setting": "wild-type (WT) MEFs", "value": "did not change"},
      {"measurement": "secretion of α1(I) polypeptide into the medium", "setting": "wild-type (WT) MEFs", "value": "drastically reduced"},
      {"measurement": "myosin IIB pulled down with LARP6", "setting": "[3]", "value": "significantly less"}
    ]}
  ]
}
